Each structure is given as a SMILES string. A value given as a limit tells only on which side of the number the result lay.

The target of the assay is T1, human plasma protein factor Xa (Homo sapiens, UniProt P00742).
T1 construct: measure proteolytic activity of the enzyme (factor Xa); purchased Haematologic Technologies (Essex Junction, Vt.); host or cells: human plasma
T1 sequence (P00742 235-488 limits assumed): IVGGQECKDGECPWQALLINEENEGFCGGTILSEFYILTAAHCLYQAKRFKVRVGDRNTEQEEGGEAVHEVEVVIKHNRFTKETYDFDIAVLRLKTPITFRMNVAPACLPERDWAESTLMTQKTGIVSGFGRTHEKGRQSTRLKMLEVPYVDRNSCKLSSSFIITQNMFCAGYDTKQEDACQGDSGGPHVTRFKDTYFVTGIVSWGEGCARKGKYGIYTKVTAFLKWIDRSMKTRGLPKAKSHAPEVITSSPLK
T1 sequence (P00742 41-179 partner limits assumed): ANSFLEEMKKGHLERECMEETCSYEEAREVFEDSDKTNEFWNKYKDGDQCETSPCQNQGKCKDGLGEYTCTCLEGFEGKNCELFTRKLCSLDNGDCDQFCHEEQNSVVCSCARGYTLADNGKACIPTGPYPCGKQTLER
Briefly: Factor Xa IC50 determination: cleavage of paranitroanilide substrate S-2765 in 96-well plates. It is filed as biochemical. As to conditions: fXa 1 nM, S-2765 100 μM, Tris buffered saline pH 7.4, room temperature. The text has this:
This example illustrates methods for evaluating the compounds of the invention, along with results obtained for such assays. The in vitro and in vivo Factor Xa isoform activities of the inventive compounds can be determined by various procedures known in the art, such as a test for their ability to inhibit the activity of the Factor Xa isoform. […] The IC50 value is the concentration (in nM) of the compound required to provide 50% inhibition of Factor Xa isoform.
An in vitro assay for detecting and measuring inhibition activity against Factor Xa is as follows:
The substrate S-2765 (Z-D-Arg-Gly-Arg-pNA.HCl) was obtained from Diapharma (West Chester, Ohio).
The human plasma protein factor Xa was purchased from Haematologic Technologies (Essex Junction, Vt.).
All assays, which are performed in 96-well microtiter plates, measure proteolytic activity of the enzyme (factor Xa) by following cleavage of paranitroanilide substrate. The assay buffer used for proteolytic assays was Tris buffered saline (20 mM Tris, 150 mM NaCl, 5 mM CaCl2, 0.1% Bovine serum albumin (BSA), 5% Dimethly Sulfoxide (DMSO) pH 7.4). In a 96-well microtiter plate, inhibitor was serially diluted to give a range of concentrations from 0.01 nM to 10 μM (final). Duplicate sets of wells were assayed and control wells without inhibitor were included. Enzyme was added to each well, (fXa concentration=1 nM), the plate was shaken for 5 seconds and then incubated for 5 minutes at room temperature. S2765 was added (100 μM final) and the plate was shaken for 5 seconds (final liquid volume in each well was 200 μl). The degree of substrate hydrolysis was measured at 405 nm on a Thermomax plate reader (Molecular Devices, Sunnyvale, Calif.) for 2 minutes. The initial velocities (mOD/min), for each range of inhibitor concentrations, were fitted to a four parameter equation using Softmax data analysis software. The parameter C, derived from the resulting curve-fit, corresponded to the concentration for half maximal inhibition (IC50).
The molecule `O=C(NCC1CC(c2cccc(-c3cccnc3)c2)=NO1)c1ccc(Cl)s1` (centres unmarked) [Example 274, 5-Chloro-thiophene-2-carboxylic acid [3-(3-pyridin-3-yl-phenyl)-4,5-dihydro-isoxazol-5-ylmethyl]-amide] returned an IC50 not below 500 nM.

Consider `CC1(CNC(=O)c2ccc(Cl)s2)CC(c2ccc(C(=N)N3CCC(C(N)=O)CC3)cc2)=NO1` (centres unmarked) [Example 68, 1-{[4-(5-{[(5-Chloro-thiophene-2-carbonyl)-amino]-methyl}-5-methyl-4,5-dihydro-isoxazol-3-yl)-phenyl]-imino-methyl}-piperidine-4-carboxylic acid amide], for which the IC50 is 100 to 500 nM.

`N=C(c1ccc(-c2csc(CNC(=O)c3ccc(Cl)s3)n2)cc1)N1CCCC1` [Example 362, 5-Chloro-N-((4-(4-(imino(pyrrolidin-1-yl)methyl)phenyl)thiazol-2-yl)methyl)thiophene-2-carboxamide] had an IC50 not below 500 nM.

With `O=C(NCC1CC(c2ccc(Nc3ccnc4ccc(C(F)(F)F)cc34)cc2)=NO1)c1ccc(Cl)s1` (centres unmarked) [Example 395, 5-Chloro-N-((3-(4-(6-(trifluoromethyl)quinolin-4-ylamino)phenyl)-4,5-dihydroisoxazol-5-yl)methyl)thiophene-2-carboxamide], the IC50 is not above 100 nM.

Consider `CN(C)C(=N)c1ccc(-c2nc(CNC(=O)c3ccc(Cl)s3)cs2)cc1` [Example 350, N-((2-(4-(N,N-Dimethylcarbamimidoyl)phenyl)thiazol-4-yl)methyl)-5-chlorothiophene-2-carboxamide], for which the IC50 fell in the range of 100 to 500 nM.

For `CN(C)C(=N)c1ccc(-n2cc(CNC(=O)c3ccc(Cl)s3)cn2)cc1` [Example 325, N-((1-(4-(N,N-Dimethylcarbamimidoyl)phenyl)-1H-pyrazol-4-yl)methyl)-5-chlorothiophene-2-carboxamide], the IC50 was not above 100 nM.

Consider `N=C(c1ccc(-c2cc(CNC(=O)c3ccc(Cl)s3)on2)c(F)c1)N1CCCC1` [Example 71, 5-Chloro-thiophene-2-carboxylic acid {3-[2-fluoro-4-(imino-pyrrolidin-1-yl-methyl)-phenyl]-isoxazol-5-ylmethyl}-amide], for which the IC50 is not above 100 nM.

`CN(C)Cc1ccccc1-c1cccc(-c2cc(CNC(=O)c3ccc(Cl)s3)on2)c1` [Example 268, 5-Chloro-thiophene-2-carboxylic acid [3-(T-dimethylaminomethyl-biphenyl-3-yl)-isoxazol-5-ylmethyl]-amide] had an IC50 not below 500 nM.

For `CN(C)C(=N)c1ccc(-c2noc(CNC(=O)c3ccc(Cl)s3)n2)cc1` [Example 334, N-((3-(4-(N,N-Dimethylcarbamimidoyl)phenyl)-1,2,4-oxadiazol-5-yl)methyl)-5-chlorothiophene-2-carboxamide], the IC50 is not above 100 nM.

In the case of `N=C(c1ccc(-n2cc(CNC(=O)c3ccc(Cl)s3)nn2)c(F)c1)N1CCC1` [Example 321, N-((1-(4-(Azetidin-1-yl(imino)methyl)-2-fluorophenyl)-1H-1,2,3-triazol-4-yl)methyl)-5-chlorothiophene-2-carboxamide], the IC50 is not above 100 nM.

Consider `CC1(CNC(=O)c2ccc(Cl)s2)CC(c2ccc(C(=N)N3CCCCC3)cc2)=NO1` (centres unmarked) [Example 60, 5-Chloro-thiophene-2-carboxylic acid {3-[4-(imino-piperidin-1-yl-methyl)-phenyl]-5-methyl-4,5-dihydro-isoxazol-5-ylmethyl}-amide], for which the IC50 was not above 100 nM.

For the molecule `N=C(N)N1CCC(c2cc(CNC(=O)c3ccc(Cl)s3)on2)CC1` [Example 179, 5-Chloro-thiophene-2-carboxylic acid [3-(1-carbamimidoyl-piperidin-4-yl)-isoxazol-5-ylmethyl]-amide], the IC50 is not below 500 nM.

On to `CN(C)Cc1ccc(Cl)cc1-c1ccc(C2=NOC(CNC(=O)c3ccc(Cl)s3)C2)cc1` (centres unmarked) [Example 204, 5-Chloro-thiophene-2-carboxylic acid [3-(5′-chloro-2′-dimethylaminomethyl-biphenyl-4-yl)-4,5-dihydro-isoxazol-5-ylmethyl]-amide], for which the IC50 was not above 100 nM.

The molecule `CCn1nccc1Nc1ccc(C2=NOC(CNC(=O)c3ccc(Cl)s3)C2)cc1` (centres unmarked) [Example 232, 5-Chloro-thiophene-2-carboxylic acid {3-[4-(2-ethyl-2H-pyrazol-3-ylamino)-phenyl]-4,5-dihydro-isoxazol-5-ylmethyl}-amide] showed an IC50 not below 500 nM.

As to `C#CCN(C)C(=N)c1ccc(-c2cc(CNC(=O)c3ccc(Cl)s3)on2)cc1` [Example 33, 5-Chloro-thiophene-2-carboxylic acid {3-[4-(N-methyl-N-prop-2-ynyl-carbamimidoyl)-phenyl]-isoxazol-5-ylmethyl}-amide], the IC50 lay within 100 to 500 nM.

The molecule `O=C(NCC1CC(c2ccc(Nc3ccncc3)cc2)=NO1)c1ccc(Cl)s1` (centres unmarked) [Example 226, 5-Chloro-thiophene-2-carboxylic acid {3-[4-(pyridin-4-ylamino)-phenyl]-4,5-dihydro-isoxazol-5-ylmethyl}-amide] showed an IC50 not above 100 nM.

Molecule `COc1cc(C(=N)N2CCCC2)ccc1C1=NOC(CNC(=O)c2ccc(Cl)s2)C1` (centres unmarked) [Example 104, 5-Chloro-thiophene-2-carboxylic acid {3-[4-(imino-pyrrolidin-1-yl-methyl)-2-methoxy-phenyl]-4,5-dihydro-isoxazol-5-ylmethyl}-amide] returned an IC50 not above 100 nM.

Consider `O=C(NCc1cc(-c2cccc(Br)c2)no1)c1ccc(Cl)s1` [Example 4, 5-Chloro-thiophene-2-carboxylic acid [3-(3-bromo-phenyl)-isoxazol-5-ylmethyl]-amide], for which the IC50 is not below 500 nM.

Consider `CN(C)C(=N)c1ccc(-c2ccc(F)c(CNC(=O)c3ccc(Cl)s3)c2)cc1` [Example 374, N-((5-(4-(N,N-Dimethylcarbamimidoyl)phenyl)-2-fluorophenyl)methyl)-5-chlorothiophene-2-carboxamide], for which the IC50 is not above 100 nM.

`O=C(NCc1cc(-c2ccc(Nc3ccccc3)cc2)no1)c1ccc(Cl)s1` [Example 250, 5-Chloro-thiophene-2-carboxylic acid [3-(4-phenylamino-phenyl)-isoxazol-5-ylmethyl]-amide] came in with an IC50 not below 500 nM.

The molecule `CC(C)Oc1cc(C2=NCCN2C)ccc1-c1cc(CNC(=O)c2ccc(Cl)s2)on1` [Example 127, 5-Chloro-thiophene-2-carboxylic acid {3-[2-isopropoxy-4-(1-methyl-4,5-dihydro-1H-imidazol-2-yl)-phenyl]-isoxazol-5-ylmethyl}-amide] displayed an IC50 not above 100 nM.

`N=C(c1ccc(-n2cc(CNC(=O)c3ccc(Cl)s3)nn2)cc1)N1CCCCC1` [Example 319, 5-Chloro-N-((1-(4-(imino(piperidin-1-yl)methyl)phenyl)-1H-1,2,3-triazol-4-yl)methyl)thiophene-2-carboxamide] yielded an IC50 not above 100 nM.

`CN(C)C(=N)c1ccc(-c2cncc(CNC(=O)c3ccc(Cl)s3)c2)cc1` [Example 369, N-((5-(4-(N,N-Dimethylcarbamimidoyl)phenyl)pyridin-3-yl)methyl)-5-chlorothiophene-2-carboxamide] came in with an IC50 not above 100 nM.

Consider `O=C(NCC1CC(c2cccc(-c3ccccc3CN3CCCC3)c2)=NO1)c1ccc(Cl)s1` (centres unmarked) [Example 263, 5-Chloro-thiophene-2-carboxylic acid [3-(2′-pyrrolidin-1-ylmethyl-biphenyl-3-yl)-4,5-dihydro-isoxazol-5-ylmethyl]-amide], for which the IC50 is not below 500 nM.

Take `COCCN(C)C(=N)c1ccc(-c2nc(CNC(=O)c3ccc(Cl)s3)co2)cc1` [Example 346, N-((2-(4-(N-(2-Methoxyethyl)-N-methylcarbamimidoyl)phenyl)oxazol-4-yl)methyl)-5-chlorothiophene-2-carboxamide]: the IC50 was 100 to 500 nM.

`N=C(c1ccc(-c2ccc(F)c(CNC(=O)c3ccc(Cl)s3)c2)cc1)N1CCCC1` [Example 376, 5-Chloro-N-((5-(4-(imino(pyrrolidin-1-yl)methyl)phenyl)-2-fluorophenyl)methyl)thiophene-2-carboxamide] returned an IC50 not above 100 nM.

Turning to `CN1CCN(c2ccc(C3=NOC(CNC(=O)c4ccc(Cl)s4)C3)cc2)CC1` (centres unmarked) [Example 235, 5-Chloro-thiophene-2-carboxylic acid {3-[4-(4-methyl-piperazin-1-yl)-phenyl]-4,5-dihydro-isoxazol-5-ylmethyl}-amide], the IC50 lay within 100 to 500 nM.

Molecule `COC[C@H]1CCCN1c1ccc(C2=NOC(CNC(=O)c3ccc(Cl)s3)C2)cc1` (some centres unmarked) [Example 236, 5-Chloro-thiophene-2-carboxylic acid {3-[4-(2-methoxymethyl-pyrrolidin-1-yl)-phenyl]-4,5-dihydro-isoxazol-5-ylmethyl}-amide] showed an IC50 not below 500 nM.

`O=C(NCC1CC(c2ccc(-n3cc(F)ccc3=O)cc2)=NO1)c1ccc(Cl)s1` (centres unmarked) [Example 280, 5-Chloro-N-((3-(4-(5-fluoro-2-oxopyridin-1(2H)-yl)phenyl)-4,5-dihydroisoxazol-5-yl)methyl)thiophene-2-carboxamide]: the IC50 is not above 100 nM.

A word on the IC50: it is the concentration at which inhibition is half-maximal. High values mean weaker potency in that assay, low ones greater potency in that assay.

(Values after patent US8377974B2 (Millennium Pharmaceuticals, Inc., priority 2004, dated 2013).)
